Laboratory results: publication PMC12862769 (ACS infectious diseases, 2025)
Converted amounts (≈) assume the structure as drawn. Where two headings read alike, the source gives them in different places.

Legend:
E. faecium NR-31914 = conditions: cited from earlier work
E. faecalis HM-934 = assay: MIC assay; format: cell-based
E. gallinarum ATCC 49373 = assay: MIC assay; format: cell-based
E. faecium NR-31933 = assay: MIC assay; format: cell-based
E. faecium NR-32065 = conditions: cited from earlier work
E. faecium NR-32094 = assay: MIC assay; format: cell-based
[1] = tested on: E. saccharolyticus ATCC 43076; assay: MIC assay; format: cell-based
E. faecalis NR-31971 = conditions: cited from earlier work
E. faecium NR-31937 = assay: MIC assay; format: cell-based
E. faecalis NR-31972 = conditions: cited from earlier work
E. raffinosus ATCC 49464 = assay: MIC assay; format: cell-based
[2] = tested on: Listeria Monocytogenes ATCC 19111; assay: MIC assay; format: cell-based
mouse gut microbiome = assay: Mouse gut microbiome diversity in fecal pellets; format: in vivo, C57BL/6 mice
E. faecium NR-31909 [3] = assay: Multi-step resistance selection assay; format: cell-based
E. faecium NR-28978 = conditions: cited from earlier work
[4] = tested on: Staphylococcus epidermidis NRS101; assay: MIC assay; format: cell-based
E. faecium HM-965 = assay: MIC assay; format: cell-based
E. faecalis HM-201 = assay: MIC assay; format: cell-based
[5] = tested on: E. casseliflavus ATCC 700327; assay: MIC assay; format: cell-based
E. faecium NR-31916 = conditions: cited from earlier work
E. hirae ATCC 10541 = assay: MIC assay; format: cell-based
[6] = tested on: all tested Enterococcus strains; assay: MIC assay, all tested Enterococcus strains; format: cell-based
E. faecalis HM-334 = conditions: cited from earlier work
E. faecium HM-968 = conditions: cited from earlier work
E. avium ATCC 14025 = assay: MIC assay; format: cell-based
E. faecium NR-31954 = assay: MIC assay; format: cell-based
E. faecium HM-952 = assay: MIC assay; format: cell-based
E. faecium NR-31909 [7] = assay: MIC assay; format: cell-based
E. faecium NR-32052 = conditions: cited from earlier work
[8] = tested on: Bacillus subtilis ATCC11774; assay: MIC assay; format: cell-based
E. faecalis HM-335 = conditions: cited from earlier work
[9] = tested on: Staphylococcus aureus USA300; assay: MIC assay; format: cell-based
E. faecium HM-970 = assay: MIC assay; format: cell-based
E. faecium NR-31909 [10] = assay: E. faecium septicemic peritonitis mouse model; format: in vivo, BALB/c mice
E. faecalis NR-31970 = assay: MIC assay; format: cell-based
[11] = tested on: E. faecalis and E. faecium strains; assay: MIC assay, panel of 25 E. faecalis and E. faecium strains; format: cell-based
E. faecium NR-32053 = assay: MIC assay; format: cell-based
E. faecium ATCC 700221 = assay: MIC assay; format: cell-based
E. faecium NR-31903 = conditions: cited from earlier work
E. durans ATCC 11576 = assay: MIC assay; format: cell-based
E. faecium NR-31912 = assay: MIC assay; format: cell-based
[12] = 5% CO2 atmosphere at 37° C, no CAs, expresses MpsAB homologs

Q: What does the source list for `CC(=O)NC[C@H]1CN(c2ccc(N3CCOCC3)c(F)c2)C(=O)O1` [LNZ, linezolid]?
A: MIC (E. faecium NR-31914; 5% CO2 atmosphere at 37° C): 2.96 µM (≈ 0.999 µg/mL); MIC (E. faecium NR-31914; ambient air at 37° C): 2.96 µM (≈ 0.999 µg/mL); MIC (E. faecalis HM-934; 5% CO2 atmosphere at 37° C): 2.96 µM (≈ 0.999 µg/mL); MIC (E. faecalis HM-934; Enterococcus faecalis, HM934): 2.96 µM (≈ 0.999 µg/mL); MIC (E. gallinarum ATCC 49373; 5% CO2 atmosphere at 37° C): 2.96 µM (≈ 0.999 µg/mL); MIC (E. gallinarum ATCC 49373; Enterococcus gallinarum, ATCC49373|GALLINARUM): 2.96 µM (≈ 0.999 µg/mL); MIC (E. faecium NR-31933; 5% CO2 atmosphere at 37° C): 2.96 µM (≈ 0.999 µg/mL); MIC (E. faecium NR-31933; Enterococcus faecium, NR31933): 2.96 µM (≈ 0.999 µg/mL); MIC (E. faecium NR-32065; 5% CO2 atmosphere at 37° C): 1.48 µM (≈ 0.499 µg/mL); MIC (E. faecium NR-32065; ambient air at 37° C): 0.74 µM (≈ 0.25 µg/mL); MIC (E. faecium NR-32094; 5% CO2 atmosphere at 37° C): 1.48 µM (≈ 0.499 µg/mL); MIC (E. faecium NR-32094; Enterococcus faecium, NR32094): 1.48 µM (≈ 0.499 µg/mL); MIC [1]: 2.96 µM (≈ 0.999 µg/mL); MIC ([1]; 5% CO2 atmosphere at 37° C): 2.96 µM (≈ 0.999 µg/mL); MIC (E. faecalis NR-31971; 5% CO2 atmosphere at 37° C): 2.96 µM (≈ 0.999 µg/mL); MIC (E. faecalis NR-31971; ambient air at 37° C): 2.96 µM (≈ 0.999 µg/mL); MIC (E. faecium NR-31937; 5% CO2 atmosphere at 37° C): 2.96 µM (≈ 0.999 µg/mL); MIC (E. faecium NR-31937; Enterococcus faecium, NR31937): 2.96 µM (≈ 0.999 µg/mL); MIC (E. faecalis NR-31972; 5% CO2 atmosphere at 37° C): 2.96 µM (≈ 0.999 µg/mL); MIC (E. faecalis NR-31972; ambient air at 37° C): 1.48 µM (≈ 0.499 µg/mL); MIC (E. raffinosus ATCC 49464; 5% CO2 atmosphere at 37° C): 2.96 µM (≈ 0.999 µg/mL); MIC (E. raffinosus ATCC 49464; Enterococcus raffinosus, ATCC49464): 2.96 µM (≈ 0.999 µg/mL); MIC ([2]; 5% CO2 atmosphere at 37° C, encodes only α-CA, no MpsAB homologs): 2.96 µM (≈ 0.999 µg/mL); MIC ([2]; Listeria monocytogenes, ATCC19111): 2.96 µM (≈ 0.999 µg/mL); change in microbiome diversity in fecal samples (mouse gut microbiome; 20 mg/kg PO QD, CAI0019 days 7 or 14, linezolid day 7, vs pre-treatment): no significant change; MIC increase (E. faecium NR-31909 [3]; starting passage 13): 2 fold MIC; MIC (E. faecium NR-28978; 5% CO2 atmosphere at 37° C): 2.96 µM (≈ 0.999 µg/mL); MIC (E. faecium NR-28978; ambient air at 37° C): 2.96 µM (≈ 0.999 µg/mL); MIC [4, 12]: 2.96 µM (≈ 0.999 µg/mL); MIC ([4]; Staphylococcus epidermidis, NRS101): 2.96 µM (≈ 0.999 µg/mL); MIC (E. faecium HM-965; 5% CO2 atmosphere at 37° C): 2.96 µM (≈ 0.999 µg/mL); MIC (E. faecium HM-965; Enterococcus faecium, HM965): 2.96 µM (≈ 0.999 µg/mL); MIC (E. faecalis HM-201; 5% CO2 atmosphere at 37° C): 2.96 µM (≈ 0.999 µg/mL); MIC (E. faecalis HM-201; Enterococcus faecalis, HM201): 2.96 µM (≈ 0.999 µg/mL); MIC ([5]; 5% CO2 atmosphere at 37° C): 2.96 µM (≈ 0.999 µg/mL); MIC ([5]; Enterococcus casseliflavus, ATCC700327): 2.96 µM (≈ 0.999 µg/mL); MIC (E. faecium NR-31916; 5% CO2 atmosphere at 37° C): 2.96 µM (≈ 0.999 µg/mL); MIC (E. faecium NR-31916; ambient air at 37° C): 2.96 µM (≈ 0.999 µg/mL); MIC (E. hirae ATCC 10541; 5% CO2 atmosphere at 37° C): 2.96 µM (≈ 0.999 µg/mL); MIC (E. hirae ATCC 10541; Enterococcus hirae, ATCC10541): 2.96 µM (≈ 0.999 µg/mL); MIC shift in the presence of CO2 ([6]; 5% CO2 versus ambient air): no MIC shift; MIC50 ([6]; Enterococcus, read-out: All Enterococci spp. MIC50): 2.96 µM (≈ 0.999 µg/mL); MIC90 ([6]; Enterococcus, read-out: All Enterococci spp. MIC90): 2.96 µM (≈ 0.999 µg/mL); MIC (E. faecalis HM-334; 5% CO2 atmosphere at 37° C): 2.96 µM (≈ 0.999 µg/mL); MIC (E. faecalis HM-334; ambient air at 37° C): 2.96 µM (≈ 0.999 µg/mL); MIC (E. faecium HM-968; 5% CO2 atmosphere at 37° C): 2.96 µM (≈ 0.999 µg/mL); MIC (E. faecium HM-968; ambient air at 37° C): 1.48 µM (≈ 0.499 µg/mL); MIC (E. avium ATCC 14025; 5% CO2 atmosphere at 37° C): 2.96 µM (≈ 0.999 µg/mL); MIC (E. avium ATCC 14025; Enterococcus avium, ATCC14025): 2.96 µM (≈ 0.999 µg/mL); MIC (E. faecium NR-31954; 5% CO2 atmosphere at 37° C): 2.96 µM (≈ 0.999 µg/mL); MIC (E. faecium NR-31954; Enterococcus faecium, NR31954): 2.96 µM (≈ 0.999 µg/mL); MIC (E. faecium HM-952; 5% CO2 atmosphere at 37° C): 2.96 µM (≈ 0.999 µg/mL); MIC (E. faecium HM-952; Enterococcus faecium, HM952): 2.96 µM (≈ 0.999 µg/mL); MIC (E. faecium NR-31909 [7]; 5% CO2 atmosphere at 37° C): 2.96 µM (≈ 0.999 µg/mL); MIC (E. faecium NR-31909 [7]; Enterococcus faecium, NR31909): 2.96 µM (≈ 0.999 µg/mL); MIC (E. faecium NR-32052; 5% CO2 atmosphere at 37° C): 1.48 µM (≈ 0.499 µg/mL); MIC (E. faecium NR-32052; ambient air at 37° C): 1.48 µM (≈ 0.499 µg/mL); MIC ([8]; 5% CO2 atmosphere at 37° C, encodes both MpsAB and CAs): 1.48 µM (≈ 0.499 µg/mL); MIC ([8]; Bacillus subtilis, ATCC11774): 1.48 µM (≈ 0.499 µg/mL); MIC (E. faecalis HM-335; 5% CO2 atmosphere at 37° C): 2.96 µM (≈ 0.999 µg/mL); MIC (E. faecalis HM-335; ambient air at 37° C): 1.48 µM (≈ 0.499 µg/mL); MIC [9, 12]: 1.48 µM (≈ 0.499 µg/mL); MIC ([9]; Staphylococcus aureus, USA300): 1.48 µM (≈ 0.499 µg/mL); MIC (E. faecium HM-970; 5% CO2 atmosphere at 37° C): 2.96 µM (≈ 0.999 µg/mL); MIC (E. faecium HM-970; Enterococcus faecium, HM970): 2.96 µM (≈ 0.999 µg/mL); survival (mice rescued) (E. faecium NR-31909 [10]; 20 mg/kg PO once-daily for three days, n = 6/group): 83%; reduction of VRE bioburden compared to vehicle (E. faecium NR-31909 [10]; kidney, liver and spleen, each tissue, 20 mg/kg PO QD three days): at least 2 Log10 CFU/mL; reduction of VRE bioburden (E. faecium NR-31909 [10]; kidney, liver and spleen, three-day treatment): > 99%; MIC (E. faecalis NR-31970; 5% CO2 atmosphere at 37° C): 2.96 µM (≈ 0.999 µg/mL); MIC (E. faecalis NR-31970; Enterococcus faecalis, NR31970): 2.96 µM (≈ 0.999 µg/mL); MIC50 ([11]; read-out: Ef MIC50): 2.96 µM (≈ 0.999 µg/mL); MIC90 ([11]; read-out: Ef MIC90): 2.96 µM (≈ 0.999 µg/mL); MIC (E. faecium NR-32053; 5% CO2 atmosphere at 37° C): 2.96 µM (≈ 0.999 µg/mL); MIC (E. faecium NR-32053; Enterococcus faecium, NR32053): 2.96 µM (≈ 0.999 µg/mL); MIC (E. faecium ATCC 700221; 5% CO2 atmosphere at 37° C): 2.96 µM (≈ 0.999 µg/mL); MIC (E. faecium ATCC 700221; Enterococcus faecium, ATCC700221): 2.96 µM (≈ 0.999 µg/mL); MIC (E. faecium NR-31903; 5% CO2 atmosphere at 37° C): 47.4 µM (≈ 16 µg/mL); MIC (E. faecium NR-31903; ambient air at 37° C): 47.4 µM (≈ 16 µg/mL); MIC (E. durans ATCC 11576; 5% CO2 atmosphere at 37° C): 2.96 µM (≈ 0.999 µg/mL); MIC (E. durans ATCC 11576; Enterococcus durans, ATCC11576): 2.96 µM (≈ 0.999 µg/mL); MIC (E. faecium NR-31912; 5% CO2 atmosphere at 37° C): 2.96 µM (≈ 0.999 µg/mL); MIC (E. faecium NR-31912; Enterococcus faecium, NR31912): 2.96 µM (≈ 0.999 µg/mL)

Q: Which MIC increase (E. faecium NR-31909 [3]; after five passages) does the source give for `CO[C@H]1/C=C/O[C@@]2(C)Oc3c(C)c(O)c4c(O)c(c(/C=N/N5CCN(C)CC5)c(O)c4c3C2=O)NC(=O)/C(C)=C\C=C\[C@H](C)[C@H](O)[C@@H](C)[C@@H](O)[C@@H](C)[C@H](OC(C)=O)[C@@H]1C` [rifampicin] here?
A: 8 fold MIC

Q: Which “change in beta diversity (Bray-Curtis dissimilarity), pre- vs post-treatment” value (mouse gut microbiome; same regimens, day −1 vs day 7 (and 14)) does the source give for `CCC[C@@H]1C[C@@H](C(=O)N[C@@H]([C@H]2O[C@H](SC)[C@H](O)[C@@H](O)[C@H]2O)[C@H](C)Cl)N(C)C1` [clindamycin] here?
A: significant change
